“Also recorded” adds a separate entry of the source.
Key:
[1] = tested on: normal C57B/6 mice; details: SAM administered in isolation; prior studies (Chan et al. 2007); cited from earlier work
[2] = tested on: mice lacking one or both murine MTHFR alleles; details: SAM supplementation; Chan et al. (2007) in press; cited from earlier work
[3] = tested on: Abeta; test: Abeta levels in murine brain by immunoblot; format: in vivo, mouse; details: normal and ApoE−/− mice
Procedure: (§1) Adult (9-12 months of age) C57B/6 mice that either express (“normal”) or lack murine ApoE (ApoE−/− mice) received a diet (“AIN-76”; Purina/Mother Hubbard, Inc.) either lacking folate and vitamin E (defined as the “deficient diet”) or supplemented with folic acid (4 mg/kg), and vitamin E (50 IU/kg total diet wet weight) (defined as the “complete diet”). The deficient diet was also supplemented in all cases with iron ([…] total diet) as a pro-oxidant (Mihalick et al., (2004) Neuromol. Med. 4:197-202; Shea and Rogers, (2002) Mol. Brain. Res. 108:1-6). Additional groups of mice maintained on each diet received SAM for the entire month (100 mg/kg diet; Chan et al., (2007) in press; Tchantchou et al., (2005) J. Alzheimers Dis. 7:135-138). Following 1 month of maintenance on these diets, mice were sacrificed by cervical dislocation, and the frontal portion of the brain (encompassing cortex and hippocampus) was immediately removed.
A portion (40-50 mg) of the above cortical/hippocampal sample was homogenized with 4 volumes of Tris-saline (50 mM Tris HCl, pH 7.4, 150 mM NaCl containing 1 mM EGTA, 0.5 mM diisopropyl fluorophosphate, 0.5 mM phenylmethylsulfonyl fluoride, 1 μg/ml N-p-tosyl-L-lysine chloromethylketone, 0.1 μg/ml pepstatin, 1 μg/ml antipain, and 1 μg/ml leupeptin). The homogenate was centrifuged at […] for 50 minutes at 4° C. […]

[4] = tested on: gamma secretase; test: Gamma secretase activity in brain homogenates (fluorescent kit); format: in vivo, mouse
Procedure: as §1
Gamma secretase activity was quantified by fluorescent spectroscopy using a gamma secretase activity kit according to the manufacturer's instructions (R&D Systems, Minneapolis, MN), using the APP peptide GVVIATVIV (SEQ ID NO: 5) conjugated to the reporter molecules EDANS and DABCYL and measuring the cleavage-dependent release of signal at 495 nm.

[5] = tested on: presenilin-1 (PS-1) expression; test: PS-1 expression by RT-PCR in murine brain; format: in vivo, mouse; details: normal and ApoE−/− mice, deficient diet + SAM 100 mg/kg diet, 1 month
Procedure: Adult (9-12 months of age) C57B/6 mice that either express (“normal”) or lack murine ApoE (ApoE−/− mice) received a diet (“AIN-76”; Purina/Mother Hubbard, Inc.) either lacking folate and vitamin E (defined as the “deficient diet”) or supplemented with folic acid (4 mg/kg), and vitamin E (50 IU/kg total diet wet weight) (defined as the “complete diet”). The deficient diet was also supplemented in all cases with iron ([…] total diet) as a pro-oxidant (Mihalick et al., (2004) Neuromol. Med. 4:197-202; Shea and Rogers, (2002) Mol. Brain. Res. 108:1-6). Additional groups of mice maintained on each diet received SAM for the entire month (100 mg/kg diet; Chan et al., (2007) in press; Tchantchou et al., (2005) J. Alzheimers Dis. 7:135-138). […]
To analyze PS-1 expression, total mRNA was extracted from the above homogenate using an RNA isolation kit and stored at −20° C. as described (Chan and Shea, (2006) J. Alzheimers Dis. 9:399-405). Transcription of murine PS-1 was analyzed using a set of primers 5′-[…]-3′ (SEQ ID NO: 1) and 5′-[…]-3′ (SEQ ID NO: 2) respectively, which yielded a product of 557 base pairs (bp) of the murine PS-1 gene. […] Gels were visualized under UV using a Gel Doc 2000 machine from BioRad and analyzed using Quantity One software. […]

[6] = 12 months, Aisen et al. 2003; cited from earlier work
[7] = 12 months, Aisen et al. 2003; cited from earlier work; remark: listed apart in the source
[8] = normal mice, deficient diet + SAM

| Structure (SMILES) | performance of normal mice [1] | cognitive performance [2] | effect on folate-deprivation-induced increase in Abeta levels ([3]; folate-deficient diet + SAM) | Abeta levels, SAM in the presence of folate ([3]; folate-supplemented diet + SAM) | effect on gamma-secretase activity ([4]; ApoE−/− mice, SAM supplementation, FIG. 22) | gamma-secretase activity, less than levels on complete diet ([4]; ApoE−/− mice, deficient diet + SAM) | effect on deficient-diet-induced increase in gamma-secretase activity [4, 8] | gamma-secretase activity relative to complete diet [4, 8] | effect on deficient-diet-induced increase in PS-1 expression [5] | performance on the NPI [6] | decline in ADCS-ADL [7] |
| --- | --- | --- | --- | --- | --- | --- | --- | --- | --- | --- | --- |
| C[S+](CC[C@H](N)C(=O)O)C[C@H]1O[C@@H](n2cnc3c(N)ncnc32)[C@H](O)[C@@H]1O (stereo partly shown) [SAM, S-adenosyl methionine] | did not improve the performance of normal mice | improved cognitive performance | prevented these increases; also recorded: alleviated these increases | did not alter values obtained with folate alone | statistically (p<0.02) reduced secretase activity | approx. 40% | attenuated by half; also recorded: reduced secretase activity in normal mice (not statistically significant) | approx. 35% | prevented these increases; also recorded: prevented or attenuated these increases | – | – |
| COc1ccc2cc([C@H](C)C(=O)O)ccc2c1 [naproxen] | – | – | – | – | – | – | – | – | – | Neither naproxen nor rofecoxib statistically improved performance on the NPI | nor prevented decline in ADCS-ADL |
| CS(=O)(=O)c1ccc(C2=C(c3ccccc3)C(=O)OC2)cc1 [rofecoxib] | – | – | – | – | – | – | – | – | – | Neither naproxen nor rofecoxib statistically improved performance on the NPI | nor prevented decline in ADCS-ADL |

— patent US8597640B2, “Over-the-counter vitamin/nutriceutical formulation that provides neuroprotection and maintains or improves cognitive performance in alzheimer's disease and normal aging” (University of Massachusetts Lowell, priority 2007, dated 2013)
